Assay results: patent publication US11028085B2, “Substituted isoindolin-1-ones and 2,3-dihydro-1h-pyrrolo[3,4-c]pyridin-1-ones as hpk1 antagonists” (Nimbus Saturn, Inc., priority 2019, dated 2021)
Structures can show the parent of a compound that is named as a salt.

Each compound was assayed against HPK1 (Homo sapiens (Human), UniProt Q92918) (assay: HPK1 biochemical enzyme assay (microfluidic mobility shift assay)). Conditions: 1.5 nM HPK1, ATP 1 mM final, 60 min at RT, Caliper EZ Reader; read-out: HPK1 1000UMATP caliper IC50.
Experimental: HPK1 biochemical enzyme assay: HPK1 enzyme inhibition was measured using a microfluidic mobility shift assay. […] Test compounds were titrated in ten point curves (top final assay concentration […]), and preincubated with enzyme/substrate mix for 30 min prior to initiation of the reaction by addition of ATP (1 mM final concentration) and substrate (1 μM final concentration; Carna Biosciences) diluted in assay buffer supplemented by MgCl2 (final assay concentration of 5 mM). Following 60 min incubation at RT, the reaction was terminated by addition of 60 µl/well termination buffer (Carna Biosciences) and signal determination using a Caliper EZ Reader (Perkin Elmer, UK). […] The compound numbers correspond to the compound numbers in Table 1.

Sequence of HPK1 (Q92918 whole entry): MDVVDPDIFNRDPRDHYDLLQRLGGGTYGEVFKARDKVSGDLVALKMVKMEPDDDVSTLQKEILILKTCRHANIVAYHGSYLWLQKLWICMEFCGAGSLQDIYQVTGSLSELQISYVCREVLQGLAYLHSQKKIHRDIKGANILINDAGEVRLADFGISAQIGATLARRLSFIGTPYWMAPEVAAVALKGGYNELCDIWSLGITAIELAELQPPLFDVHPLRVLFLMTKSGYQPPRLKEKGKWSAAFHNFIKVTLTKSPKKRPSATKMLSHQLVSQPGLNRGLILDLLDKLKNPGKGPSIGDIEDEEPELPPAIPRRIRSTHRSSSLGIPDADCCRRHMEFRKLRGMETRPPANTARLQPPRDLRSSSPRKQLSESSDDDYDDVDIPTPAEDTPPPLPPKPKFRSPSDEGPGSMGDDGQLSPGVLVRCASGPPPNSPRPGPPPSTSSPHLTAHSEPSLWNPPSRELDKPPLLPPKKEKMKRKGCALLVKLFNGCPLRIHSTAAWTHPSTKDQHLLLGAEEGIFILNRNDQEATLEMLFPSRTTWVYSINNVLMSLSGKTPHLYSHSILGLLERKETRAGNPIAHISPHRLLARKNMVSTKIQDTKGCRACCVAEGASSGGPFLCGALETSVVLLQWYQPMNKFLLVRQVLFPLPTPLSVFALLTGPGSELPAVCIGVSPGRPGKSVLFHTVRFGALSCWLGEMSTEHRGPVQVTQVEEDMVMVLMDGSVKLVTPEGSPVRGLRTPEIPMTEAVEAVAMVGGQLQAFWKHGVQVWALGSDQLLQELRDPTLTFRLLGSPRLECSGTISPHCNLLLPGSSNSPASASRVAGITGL

Row | Compound | IC50 [nM]
1 | CN1CCN(c2nc(Nc3ccc(-c4cnc5cc(F)ccn45)c4c3C(=O)NC4)ccc2[C@@H]2CCOC2)CC1 [I-802, (S)-4-(7-fluoroimidazo [1,2-a]pyridin-3-yl)-7-((6-(4-methylpiperazin-1-yl)-5-(tetrahydrofuran-3-yl)pyridin-2-yl)amino)isoin-dolin-1-one] | < 100
2 | CN(C)Cc1nc(Nc2cnc(-c3ccnc4c3ccn4C)c3c2C(=O)NC3)ccc1O[C@@H]1CCOC1 [I-805, (R)-7-((6-((dimethylamino)-methyl)-5-((tetrahydrofur-an-3-yl)oxy)pyridin-2-yl)amino)-4-(1-methyl-1H-pyrrolo[2,3-b]pyridin-4-yl)-2,3-dihydro-1H-pyrrolo[3,4-c]pyridin-1-one] | < 100
3 | (R)-7-((6- ((dimethylamino)- methyl)-5-(3-(2- hydroxypropan- 2-yl)piperidin-1- yl)pyridin-2- yl)amino)-4-(7- fluoroimidazo [1,2-a]pyridin- 3-yl)isoindolin- 1-one [I-745] | < 100
4 | (S)-7-((6- ((dimethylamino)- methyl)-5-(3-(2- hydroxypropan- 2-yl)piperidin-1- yl)pyridin-2- yl)amino)-4-(7- fluoroimidazo [1,2-a]pyridin- 3-yl)isoindolin- 1-one [I-746] | < 100

The next lines start with the values.

Row | IC50 [nM] | Compound
5 | < 100 | CN1CC(Oc2nc(Nc3ccc(-c4cnc5cc(F)ccn45)c4c3C(=O)NC4)ccc2[C@@H]2CCOC2)C1 [I-816, (S)-4-(7-fluoroimidazo [1,2-a]pyridin-3-yl)-7-((6-((1-methylazetidin-3-yl]oxy)-5-(THF-3-yl)pyridin-2-yl)amino)isoin-dolin-1-one]
6 | < 100 | COCC1(O)CCN(c2ccc(Nc3cnc(-c4ccnc5c4ccn5C)c4c3C(=O)NC4)nc2CN(C)C)CC1 [I-851, 7-1(6-[(dimethylamino)-methyl (-5-[4-hydroxy-4-(methoxymeth-yl)-1-piperidyl]-2-pyridyl]amino]-4-(1-methylpyrrolo [2,3-b]pyridin-4-yl)-2,3-dihydropyrrolo [3,4-c]pyridin-1-one Formate salt]
